Measurements as given in patent US20230263822A1, “MODULATION OF FACTOR 11 EXPRESSION” (Ionis Pharmaceuticals, Inc., priority 2008, published 2023).
pIC50: −log10 of the molar value. Strand notation (5' to 3'): a small letter for the sugar, then the base; units joined by * are phosphorothioate-linked, units joined directly phosphodiester-linked; [ ] holds rarer units or linkages, { } end groups; capitals alone tell only the bases. e = 2'-O-(2-methoxyethyl) (MOE); [5mC] = 5-methylcytosine; d = 2'-deoxy (DNA)

Key:
Type in all cases: cell-based
[1] = test system: human Factor 11 mRNA; assay: Dose-dependent inhibition of human Factor 11 in HepG2 cells, electroporation 0.7-20 uM (Example 4); details: for percent inhibition of Factor 11 at 0.7 μM / percent inhibition of Factor 11 at 2.2 μM / percent inhibition of Factor 11 at 6.7 μM / percent inhibition of Factor 11 at 20 μM: relative to untreated control cells
Protocol: (§1) The gapmers were also transfected via electroporation and their dose dependent inhibition of human Factor 11 mRNA was measured. Cells were plated at a density of 20,000 cells per well and transfected via electroporation with 0.7 μM, 2.2 μM, 6.7 μM, and 20 μM concentrations of antisense oligonucleotide, as specified in Table 10. After a treatment period of approximately 16 hours, RNA was isolated from the cells and Factor 11 mRNA levels were measured by quantitative real-time PCR. Human Factor 11 primer probe set RTS 2966 was used to measure mRNA levels. Factor 11 mRNA levels were adjusted according to total RNA content, as measured by RIBOGREEN. Results are presented as percent inhibition of Factor 11, relative to untreated control cells.

[2] = test system: human Factor 11 mRNA; assay: Dose-dependent inhibition of human Factor 11 in HepG2 cells, lipofectin 9.375-75 nM (Example 4); details: for percent inhibition of Factor 11 at 9.375 nM / percent inhibition of Factor 11 at 18.75 nM / percent inhibition of Factor 11 at 37.5 nM / percent inhibition of Factor 11 at 75 nM: relative to untreated control cells
Protocol: as §1, with “Cells” for “The gapmers were also transfected via electroporation and their dose dependent inhibition of human Factor 11 mRNA was measured. Cells”, “10,000” for “20,000”, “using lipofectin reagent” for “via electroporation”, “9.375 nM, 18.75 nM, 37.5 nM” for “0.7 μM, 2.2 μM, 6.7 μM,”, “75 nM” for “20 μM”, “9.” for “10.”

[3] = test system: human Factor 11 mRNA; assay: Antisense inhibition of human Factor 11 in HepG2 cells by microwalk gapmers, lipofectin, 75 nM (Example 3)
Method in brief: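 HepG2 cells (10,000/well) were transfected via lipofectin with 75 nM 20-mer MOE gapmers (phosphorothioate, 5-methyl-C) for about 24 h. Factor 11 mRNA was measured by qRT-PCR, normalized to RIBOGREEN total RNA, and given as percent inhibition versus untreated cells.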

[4] = HepG2 cells, lipofectin, gapmers targeted to nucleobases 1275 to 1318 of SEQ ID NO: 1
[5] = HepG2, lipofectin, ~24 h, gapmers targeted to nucleobases 656 to 704 of SEQ ID NO: 1

Substance	pIC50 [1]	percent inhibition of Factor 11 at 0.7 μM [1]	percent inhibition of Factor 11 at 2.2 μM [1]	percent inhibition of Factor 11 at 6.7 μM [1]	percent inhibition of Factor 11 at 20 μM [1]	pIC50 [2]	percent inhibition of Factor 11 at 9.375 nM [2]	percent inhibition of Factor 11 at 18.75 nM [2]	percent inhibition of Factor 11 at 37.5 nM [2]	percent inhibition of Factor 11 at 75 nM [2]	% inhibition [3, 4]	% inhibition [3, 5]	% inhibition ([3]; HepG2 cells, lipofectin, gapmers targeted to nucleobases 1062 to 1091 of SEQ ID NO: 1)
416941 (antisense eG*eG*e[5mC]*dA*dG*d[5mC]*dG*dG*dA*d[5mC]*dG*dG*d[5mC]*dA*dT*dT*dG*eG*eT*eG) [compound 416941]	5.52	16%	38%	79%	89%	7.72	33%	54%	63%	78%	95%		
416878 (antisense eG*eG*eT*d[5mC]*d[5mC]*dA*d[5mC]*dA*dT*dA*dA*dA*dT*dG*dT*d[5mC]*dT*eT*eT*eG) [compound 416878]	5.37	1%	26%	75%	85%	7.57	22%	34%	60%	82%		95%	
416989 (antisense eG*eA*dG*dA*dT*dT*d[5mC]*dT*dT*dT*dG*dG*dG*d[5mC]*d[5mC]*eA*eT*eT*e[5mC]*e[5mC]) [compound 416989]	5.89	32%	65%	88%	94%	7.59	18%	41%	62%	83%			88%
416924 (antisense eG*eT*eG*d[5mC]*dA*d[5mC]*dA*dG*dT*dT*dT*d[5mC]*dT*dG*dG*d[5mC]*dA*eG*eG*e[5mC]) [compound 416924]	5.39	22%	40%	63%	70%	7.44	25%	38%	56%	59%	96%		
416945 (antisense eA*eA*dT*dG*dT*d[5mC]*dT*dT*dT*dG*dT*dT*dG*d[5mC]*dA*eA*eG*e[5mC]*eG*e[5mC]) [compound 416945]	6.22	48%	70%	81%	88%	7.62	34%	45%	62%	65%		94%	
416972 (antisense eT*eA*dT*dG*d[5mC]*d[5mC]*d[5mC]*dT*dT*d[5mC]*dA*dT*dG*dT*d[5mC]*eT*eA*eG*eG*eT) [compound 416972]	5.37	25%	30%	48%	88%	7.59	32%	40%	60%	69%		90%	
